AC50 data for 20 compounds are collected here from patent US20230365592A1 (Agios Pharmaceuticals, Inc., priority 2022, published 2023).

The target in this experiment is T1, human PAH with the R408W mutation (Homo sapiens, UniProt P00439, R408W).
T1 construct: expressed in transfected cells
T1 sequence (P00439 1-452 R408W): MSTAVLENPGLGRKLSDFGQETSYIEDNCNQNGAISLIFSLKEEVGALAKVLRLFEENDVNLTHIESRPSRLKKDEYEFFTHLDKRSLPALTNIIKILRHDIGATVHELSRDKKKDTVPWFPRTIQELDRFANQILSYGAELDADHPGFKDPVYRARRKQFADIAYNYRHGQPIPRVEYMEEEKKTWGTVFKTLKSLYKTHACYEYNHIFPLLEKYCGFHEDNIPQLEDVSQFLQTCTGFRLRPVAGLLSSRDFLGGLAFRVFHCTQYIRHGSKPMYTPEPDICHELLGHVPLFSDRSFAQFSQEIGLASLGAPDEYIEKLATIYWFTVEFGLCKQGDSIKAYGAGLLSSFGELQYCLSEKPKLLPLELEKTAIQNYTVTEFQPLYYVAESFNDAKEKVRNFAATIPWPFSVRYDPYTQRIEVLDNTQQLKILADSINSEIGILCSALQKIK
As to the kind of experiment: Cell Based Phenylalanine Flux Assay.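 Further: after compound treatment, cells received sepiapterin plus isotope-labelled Phenylalanine for 4 hours, then labelled Tyrosine in the medium was quantified, 10-point 2-fold dilution series run in duplicate.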 Conditions: A375 cells expressing human R408W PAH; 24 hrs compound incubation; 13C-Tyrosine by LC-MS; average where tested multiple times; read-out: AC50.

What is called AC50 is the concentration at which the activity in the assay is half-maximal. Take `O=C(c1cnn2cc(C3CC3)ccc12)N1CCc2[nH]cnc2[C@H]1c1cc2c(Cl)cccn2n1` [Example 1768, (S)-(4-(4-chloropyrazolo[1,5-a]pyridin-2-yl)-6,7-dihydro-1H-imidazo[4,5-c]pyridin-5(4H)-yl)(6-cyclopropylpyrazolo[1,5-a]pyridin-3-yl)methanone]: the AC50 was less than 0.5 µM.

As to `O=C(c1cnn2cc(C3CC3)ccc12)N1CCc2[nH]cnc2[C@@H]1c1cc2c(Cl)cccn2n1` [Example 1769, (R)-(4-(4-chloropyrazolo[1,5-a]pyridin-2-yl)-6,7-dihydro-1H-imidazo[4,5-c]pyridin-5(4H)-yl)(6-cyclopropylpyrazolo[1,5-a]pyridin-3-yl)methanone], the half-maximal activity concentration (AC50) lay within 1 to 5 µM.

For `CN(C)c1ccc2c(C(=O)N3CCc4[nH]cnc4[C@H]3c3cc4c(C(F)F)cccn4n3)cnn2c1` [Example 1770, (S)-(4-(4-(difluoromethyl)pyrazolo[1,5-a]pyridin-2-yl)-6,7-dihydro-1H-imidazo[4,5-c]pyridin-5(4H)-yl)(6-(dimethylamino)pyrazolo[1,5-a]pyridin-3-yl)methanone], the AC50 lay in the range of 0.5 to 1 µM.

On to `CN(C)c1ccc2c(C(=O)N3CCc4[nH]cnc4[C@@H]3c3cc4c(C(F)F)cccn4n3)cnn2c1` [Example 1771, (R)-(4-(4-(difluoromethyl)pyrazolo[1,5-a]pyridin-2-yl)-6,7-dihydro-1H-imidazo[4,5-c]pyridin-5(4H)-yl)(6-(dimethylamino)pyrazolo[1,5-a]pyridin-3-yl)methanone], for which the AC50 is more than 5 µM.

Turning to `CN(C)c1ccc2c(C(=O)N3CCc4[nH]cnc4[C@@H]3c3cc4c(F)cccn4n3)cnn2c1` [Example 1773, (R)-(6-(dimethylamino)pyrazolo[1,5-a]pyridin-3-yl)(4-(4-fluoropyrazolo[1,5-a]pyridin-2-yl)-6,7-dihydro-1H-imidazo[4,5-c]pyridin-5(4H)-yl)methanone], the AC50 is more than 5 µM.

For the compound `FC(F)(F)c1cnc(N2CCc3[nH]cnc3[C@H]2c2cc3c(C(F)(F)F)cccn3n2)nc1` [Example 1774, (S)-4-(4-(trifluoromethyl)pyrazolo[1,5-a]pyridin-2-yl)-5-(5-(trifluoromethyl)pyrimidin-2-yl)-4,5,6,7-tetrahydro-1H-imidazo[4,5-c]pyridine], the AC50 is less than 0.5 µM.

Take `FC(F)(F)c1cnc(N2CCc3[nH]cnc3[C@@H]2c2cc3c(C(F)(F)F)cccn3n2)nc1` [Example 1775, (R)-4-(4-(trifluoromethyl)pyrazolo[1,5-a]pyridin-2-yl)-5-(5-(trifluoromethyl)pyrimidin-2-yl)-4,5,6,7-tetrahydro-1H-imidazo[4,5-c]pyridine]: the AC50 is more than 5 µM.

In the case of `FC(F)c1cccn2nc([C@@H]3c4nc[nH]c4CCN3c3ncc(C(F)(F)F)cn3)cc12` [Example 1776, (S)-4-(4-(difluoromethyl)pyrazolo[1,5-a]pyridin-2-yl)-5-(5-(trifluoromethyl)pyrimidin-2-yl)-4,5,6,7-tetrahydro-1H-imidazo[4,5-c]pyridine], the AC50 is less than 0.5 µM.

Regarding `FC(F)c1cccn2nc([C@H]3c4nc[nH]c4CCN3c3ncc(C(F)(F)F)cn3)cc12` [Example 1777, (R)-4-(4-(difluoromethyl)pyrazolo[1,5-a]pyridin-2-yl)-5-(5-(trifluoromethyl)pyrimidin-2-yl)-4,5,6,7-tetrahydro-1H-imidazo[4,5-c]pyridine], the AC50 was more than 5 µM.

In the case of `FC(F)(F)c1cnc(N2CCc3[nH]cnc3[C@H]2c2cc3c(Cl)cccn3n2)nc1` [Example 1780, (S)-4-(4-chloropyrazolo[1,5-a]pyridin-2-yl)-5-(5-(trifluoromethyl)pyrimidin-2-yl)-4,5,6,7-tetrahydro-1H-imidazo[4,5-c]pyridine], the AC50 was less than 0.5 µM.

As for `FC(F)(F)c1cnc(N2CCc3[nH]cnc3[C@@H]2c2cc3c(Cl)cccn3n2)nc1` [Example 1781, (R)-4-(4-chloropyrazolo[1,5-a]pyridin-2-yl)-5-(5-(trifluoromethyl)pyrimidin-2-yl)-4,5,6,7-tetrahydro-1H-imidazo[4,5-c]pyridine], the AC50 is more than 5 µM.

On to `O=C(c1nnc(-c2cnn(C(F)F)c2)o1)N1CCc2[nH]cnc2[C@H]1c1cc2c(OC(F)(F)F)cccn2n1` [Example 1782, (S)-(5-(1-(difluoromethyl)-1H-pyrazol-4-yl)-1,3,4-oxadiazol-2-yl)(4-(4-(trifluoromethoxy)pyrazolo[1,5-a]pyridin-2-yl)-6,7-dihydro-1H-imidazo[4,5-c]pyridin-5(4H)-yl)methanone], for which the AC50 is 0.5 to 1 µM.

As to `COCCc1ccc2c(C(=O)N3CCc4[nH]cnc4[C@H]3c3cc4c(C(F)(F)F)cccn4n3)cnn2c1` [Example 1784, (S)-(6-(2-methoxyethyl)pyrazolo[1,5-a]pyridin-3-yl)(4-(4-(trifluoromethyl)pyrazolo[1,5-a]pyridin-2-yl)-1,4,6,7-tetrahydro-5H-imidazo[4,5-c]pyridin-5-yl)methanone], the AC50 was 0.5 to 1 µM.

Turning to `Cc1ccc2c(C(=O)N3CCc4[nH]cnc4[C@H]3c3cc4cccc(F)n4n3)cnn2c1` [Example 1786, (S)-(4-(7-fluoropyrazolo[1,5-a]pyridin-2-yl)-6,7-dihydro-1H-imidazo[4,5-c]pyridin-5(4H)-yl)(6-methylpyrazolo[1,5-a]pyridin-3-yl)methanone], the AC50 lay in the range of 0.5 to 1 µM.

As to `Cc1ccc2c(C(=O)N3CCc4[nH]cnc4[C@@H]3c3cc4cccc(F)n4n3)cnn2c1` [Example 1787, (R)-(4-(7-fluoropyrazolo[1,5-a]pyridin-2-yl)-6,7-dihydro-1H-imidazo[4,5-c]pyridin-5(4H)-yl)(6-methylpyrazolo[1,5-a]pyridin-3-yl)methanone], the AC50 lay in the range of 1 to 5 µM.

Consider `COc1cccn2nc([C@@H]3c4nc[nH]c4CCN3C(=O)c3cnn4cc(C5CC5)ccc34)cc12` [Example 1788, (S)-(6-cyclopropylpyrazolo[1,5-a]pyridin-3-yl)(4-(4-methoxypyrazolo[1,5-a]pyridin-2-yl)-6,7-dihydro-1H-imidazo[4,5-c]pyridin-5(4H)-yl)methanone], for which the AC50 lay within 0.5 to 1 µM.

Take `COc1cccn2nc([C@H]3c4nc[nH]c4CCN3C(=O)c3cnn4cc(C5CC5)ccc34)cc12` [Example 1789, (R)-(6-cyclopropylpyrazolo[1,5-a]pyridin-3-yl)(4-(4-methoxypyrazolo[1,5-a]pyridin-2-yl)-6,7-dihydro-1H-imidazo[4,5-c]pyridin-5(4H)-yl)methanone]: the concentration at half-maximal activity (AC50) was more than 5 µM.

For `O=C(c1cnn2cc(C3CC3)ccc12)N1CCc2[nH]cnc2[C@H]1c1cc2cccc(F)n2n1` [Example 1790, (S)-(6-cyclopropylpyrazolo[1,5-a]pyridin-3-yl)(4-(7-fluoropyrazolo[1,5-a]pyridin-2-yl)-6,7-dihydro-1H-imidazo[4,5-c]pyridin-5(4H)-yl)methanone], the AC50 lay in the range of 0.5 to 1 µM.

With `O=C(c1cnn2cc(C3CC3)ccc12)N1CCc2[nH]cnc2[C@@H]1c1cc2cccc(F)n2n1` [Example 1791, (R)-(6-cyclopropylpyrazolo[1,5-a]pyridin-3-yl)(4-(7-fluoropyrazolo[1,5-a]pyridin-2-yl)-6,7-dihydro-1H-imidazo[4,5-c]pyridin-5(4H)-yl)methanone], the AC50 was more than 5 µM.

As for `CN(C)c1ccc2c(C(=O)N3CCc4[nH]cnc4[C@H]3c3cc4c(Cl)cccn4n3)cnn2c1` [Example 1792, (S)-(4-(4-chloropyrazolo[1,5-a]pyridin-2-yl)-6,7-dihydro-1H-imidazo[4,5-c]pyridin-5(4H)-yl)(6-(dimethylamino)pyrazolo[1,5-a]pyridin-3-yl)methanone], the AC50 is less than 0.5 µM.
